Assay results: patent US20180200257A1, “METHODS FOR THE TREATMENT OF INFLAMMATORY DISORDERS” (Galapagos NV, priority 2015, published 2018)

Test system: subjects with moderately to severely active RA who have an inadequate response to methotrexate (MTX)
Assay: Study 1 (add-on to MTX) - Alanine Aminotransferase (ALT) levels
Format: in vivo, human
Settings: 24 weeks results
Procedure: Double-blind, placebo-controlled add on study in subjects with moderately to severely active RA who have an inadequate response to methotrexate (MTX) (oral or parenteral).
595 subjects randomized to one of 6 dose regimens of Compound 1 (dosed as [Compound 1:HCl:3H2O]) (3 dose levels administered either once or twice daily) or placebo on top of each subject's stable dose of MTX.
Compound 1 (dosed as [Compound 1:HCl:3H2O]) is dosed for twelve weeks once daily (q.d.) (50 mg, 100 mg or 200 mg) or twice daily (b.i.d.) (25 mg, 50 mg or 100 mg); or placebo.
At Week 12, the subjects on placebo who have not achieved 20% improvement in swollen joint count (SJC66) and tender joint count (TJC68) are re-randomized automatically to receive Compound 1 (dosed as a [Compound 1:HCl:3H2O]) either at 100 mg q.d. or 50 mg b.i.d. doses in a blinded fashion; subjects on 50 mg q.d. who have not achieved 20% improvement in SJC66 and TJC68 will be assigned to 100 mg q.d. and subjects on 25 mg b.i.d. that have not achieved a 20% improvement in SJC66 and TJC68 will be assigned to 50 mg b.i.d. Subjects who switch treatment at week 12 are handled as if they discontinued at week 12 for the purpose of statistical analysis, whereas subjects in the other groups will maintain their randomized treatment until Week 24.
ALT levels determination is available at Quest Diagnostics, Clinical Trials, Quest House, 125-135 Staines Road, Hounslow, Middlesex, TW3 3JB, United Kingdom under Catalogue n#84460.
ALT catalyzes the exchange of the amino group of alanine with the oxogroup of 2-ketoglutarate to form pyruvate and glutamate. In the presence of lactic dehydrogenase, pyruvate reacts with NADH to form NAD+, measured spectrophotometrically. Guidelines for the ALT value have been issued by the association for Clinical Biochemistry and Laboratory Medicine, 130-132 Tooley Street LONDON SE1 2TU, united Kingdom, wherein the ALT value should be below 34 U/l in Female and below 52 U/L in male.

[1] = continued 100 mg b.i.d., week 1
[2] = continued 100 mg b.i.d., week 2
[3] = continued 100 mg b.i.d., week 4
[4] = continued 100 mg b.i.d., week 8
[5] = continued 100 mg b.i.d., week 12
[6] = continued 100 mg b.i.d., week 16
[7] = continued 100 mg b.i.d., week 20
[8] = continued 100 mg b.i.d., week 24
[9] = from 25 mg b.i.d. to 50 mg b.i.d. at 12 weeks, week 1
[10] = from 25 mg b.i.d. to 50 mg b.i.d. at 12 weeks, week 2
[11] = from 25 mg b.i.d. to 50 mg b.i.d. at 12 weeks, week 4
[12] = from 25 mg b.i.d. to 50 mg b.i.d. at 12 weeks, week 8
[13] = from 25 mg b.i.d. to 50 mg b.i.d. at 12 weeks, week 12
[14] = from 25 mg b.i.d. to 50 mg b.i.d. at 12 weeks, week 16
[15] = from 25 mg b.i.d. to 50 mg b.i.d. at 12 weeks, week 20
[16] = from 25 mg b.i.d. to 50 mg b.i.d. at 12 weeks, week 24
[17] = from 50 mg q.d. to 100 mg q.d. at 12 weeks, week 1
[18] = from 50 mg q.d. to 100 mg q.d. at 12 weeks, week 2
[19] = from 50 mg q.d. to 100 mg q.d. at 12 weeks, week 4
[20] = from 50 mg q.d. to 100 mg q.d. at 12 weeks, week 8
[21] = from 50 mg q.d. to 100 mg q.d. at 12 weeks, week 12
[22] = from 50 mg q.d. to 100 mg q.d. at 12 weeks, week 16
[23] = from 50 mg q.d. to 100 mg q.d. at 12 weeks, week 20
[24] = from 50 mg q.d. to 100 mg q.d. at 12 weeks, week 24
[25] = placebo switched to 50 mg b.i.d. at week 12, week 16
[26] = placebo switched to 50 mg b.i.d. at week 12, week 20
[27] = placebo switched to 50 mg b.i.d. at week 12, week 24
[28] = placebo switched to 100 mg q.d. at week 12, week 16
[29] = placebo switched to 100 mg q.d. at week 12, week 20
[30] = placebo switched to 100 mg q.d. at week 12, week 24

O=C(Nc1nc2cccc(-c3ccc(CN4CCS(=O)(=O)CC4)cc3)n2n1)C1CC1 [Compound 1, cyclopropanecarboxylic acid {5-[4-(1,1-dioxo-thiomorpholin-4-ylmethyl)-phenyl]-[1,2,4]triazolo[1,5-a]pyridin-2-yl}-amide]
Study 1 - ALT Mean CFB (continued 50 mg q.d., week 12): 0.5 IU/L | Study 1 - ALT Mean percentage CFB (continued 50 mg q.d., week 12): 13.8% | Study 1 - ALT Mean CFB (continued 50 mg q.d., week 16): 1.1 IU/L | Study 1 - ALT Mean percentage CFB (continued 50 mg q.d., week 16): 18.1% | Study 1 - ALT Mean CFB (continued 50 mg q.d., week 20): 2.2 IU/L | Study 1 - ALT Mean percentage CFB (continued 50 mg q.d., week 20): 22.1% | Study 1 - ALT Mean CFB (continued 50 mg q.d., week 24): 1.7 IU/L | Study 1 - ALT Mean percentage CFB (continued 50 mg q.d., week 24): 19.4% | Study 1 - ALT Mean CFB [1]: 0.5 IU/L | Study 1 - ALT Mean percentage CFB [1]: 8.8% | Study 1 - ALT Mean CFB [2]: 0.8 IU/L | Study 1 - ALT Mean percentage CFB [2]: 10.4% | Study 1 - ALT Mean CFB [3]: 0.8 IU/L | Study 1 - ALT Mean percentage CFB [3]: 20.4% | Study 1 - ALT Mean CFB [4]: 0.6 IU/L | Study 1 - ALT Mean percentage CFB [4]: 24.5% | Study 1 - ALT Mean CFB [5]: 1.7 IU/L | Study 1 - ALT Mean percentage CFB [5]: 26.0% | Study 1 - ALT Mean CFB [6]: 3.2 IU/L | Study 1 - ALT Mean percentage CFB [6]: 32.4% | Study 1 - ALT Mean CFB [7]: 2.8 IU/L | Study 1 - ALT Mean percentage CFB [7]: 34.2% | Study 1 - ALT Mean CFB [8]: 4.0 IU/L | Study 1 - ALT Mean percentage CFB [8]: 47.8% | Study 1 - ALT Mean CFB (continued 100 mg q.d., week 1): 3.0 IU/L | Study 1 - ALT Mean percentage CFB (continued 100 mg q.d., week 1): 13.6% | Study 1 - ALT Mean CFB (continued 100 mg q.d., week 2): 0.9 IU/L | Study 1 - ALT Mean percentage CFB (continued 100 mg q.d., week 2): 8.8% | Study 1 - ALT Mean CFB (continued 100 mg q.d., week 4): 0.6 IU/L | Study 1 - ALT Mean percentage CFB (continued 100 mg q.d., week 4): 9.1% | Study 1 - ALT Mean CFB (continued 100 mg q.d., week 8): 1.7 IU/L | Study 1 - ALT Mean percentage CFB (continued 100 mg q.d., week 8): 15.1% | Study 1 - ALT Mean CFB (continued 100 mg q.d., week 12): 1.6 IU/L | Study 1 - ALT Mean percentage CFB (continued 100 mg q.d., week 12): 15.6% | Study 1 - ALT Mean CFB (continued 100 mg q.d., week 16): 0.7 IU/L | Study 1 - ALT Mean percentage CFB (continued 100 mg q.d., week 16): 9.5% | Study 1 - ALT Mean CFB (continued 100 mg q.d., week 20): 1.8 IU/L | Study 1 - ALT Mean percentage CFB (continued 100 mg q.d., week 20): 19.8% | Study 1 - ALT Mean CFB (continued 100 mg q.d., week 24): 5.1 IU/L | Study 1 - ALT Mean percentage CFB (continued 100 mg q.d., week 24): 39.5% | Study 1 - ALT Mean CFB (continued 200 mg q.d., week 1): 2.3 IU/L | Study 1 - ALT Mean percentage CFB (continued 200 mg q.d., week 1): 11.4% | Study 1 - ALT Mean CFB (continued 200 mg q.d., week 2): 1.4 IU/L | Study 1 - ALT Mean percentage CFB (continued 200 mg q.d., week 2): 15.5% | Study 1 - ALT Mean CFB (continued 200 mg q.d., week 4): 1.1 IU/L | Study 1 - ALT Mean percentage CFB (continued 200 mg q.d., week 4): 15.1% | Study 1 - ALT Mean CFB (continued 200 mg q.d., week 8): 3.9 IU/L | Study 1 - ALT Mean percentage CFB (continued 200 mg q.d., week 8): 31.1% | Study 1 - ALT Mean CFB (continued 200 mg q.d., week 12): 3.4 IU/L | Study 1 - ALT Mean percentage CFB (continued 200 mg q.d., week 12): 33.9% | Study 1 - ALT Mean CFB (continued 200 mg q.d., week 16): 4.7 IU/L | Study 1 - ALT Mean percentage CFB (continued 200 mg q.d., week 16): 43.8% | Study 1 - ALT Mean CFB (continued 200 mg q.d., week 20): 2.9 IU/L | Study 1 - ALT Mean percentage CFB (continued 200 mg q.d., week 20): 32.9% | Study 1 - ALT Mean CFB (continued 200 mg q.d., week 24): 5.4 IU/L | Study 1 - ALT Mean percentage CFB (continued 200 mg q.d., week 24): 47.5% | Study 1 - ALT Mean CFB [9]: −7.8 IU/L | Study 1 - ALT Mean percentage CFB [9]: −16.4% | Study 1 - ALT Mean CFB [10]: −7.3 IU/L | Study 1 - ALT Mean percentage CFB [10]: −12.0% | Study 1 - ALT Mean CFB [11]: −5.6 IU/L | Study 1 - ALT Mean percentage CFB [11]: 0.0% | Study 1 - ALT Mean CFB [12]: −8.3 IU/L | Study 1 - ALT Mean percentage CFB [12]: −16.4% | Study 1 - ALT Mean CFB [13]: −6.4 IU/L | Study 1 - ALT Mean percentage CFB [13]: −5.8% | Study 1 - ALT Mean CFB [14]: −7.9 IU/L | Study 1 - ALT Mean percentage CFB [14]: −9.7% | Study 1 - ALT Mean CFB [15]: −5.4 IU/L | Study 1 - ALT Mean percentage CFB [15]: 5.9% | Study 1 - ALT Mean CFB [16]: −4.8 IU/L | Study 1 - ALT Mean percentage CFB [16]: 5.7% | Study 1 - ALT Mean CFB [17]: 0.4 IU/L | Study 1 - ALT Mean percentage CFB [17]: 0.9% | Study 1 - ALT Mean CFB [18]: −1.4 IU/L | Study 1 - ALT Mean percentage CFB [18]: −6.5% | Study 1 - ALT Mean CFB [19]: −0.3 IU/L | Study 1 - ALT Mean percentage CFB [19]: 2.2% | Study 1 - ALT Mean CFB [20]: −0.2 IU/L | Study 1 - ALT Mean percentage CFB [20]: 3.6% | Study 1 - ALT Mean CFB [21]: −0.1 IU/L | Study 1 - ALT Mean percentage CFB [21]: 5.2% | Study 1 - ALT Mean CFB [22]: −2.3 IU/L | Study 1 - ALT Mean percentage CFB [22]: −9.8% | Study 1 - ALT Mean CFB [23]: −1.7 IU/L | Study 1 - ALT Mean percentage CFB [23]: −3.7% | Study 1 - ALT Mean CFB [24]: −3.0 IU/L | Study 1 - ALT Mean percentage CFB [24]: −8.7% | Study 1 - ALT Mean CFB [25]: 0.5 IU/L | Study 1 - ALT Mean percentage CFB [25]: 1.1% | Study 1 - ALT Mean CFB [26]: 0.7 IU/L | Study 1 - ALT Mean percentage CFB [26]: 0.7% | Study 1 - ALT Mean CFB [27]: 1.0 IU/L | Study 1 - ALT Mean percentage CFB [27]: 6.8% | Study 1 - ALT Mean CFB [28]: −1.3 IU/L | Study 1 - ALT Mean percentage CFB [28]: 0.4% | Study 1 - ALT Mean CFB [29]: 0.5 IU/L | Study 1 - ALT Mean percentage CFB [29]: 5.9% | Study 1 - ALT Mean CFB [30]: −0.1 IU/L | Study 1 - ALT Mean percentage CFB [30]: 10.0%
